From PMC11249646, “Small-Molecule Disruptors of the Interaction between Calcium- and Integrin-Binding Protein 1 and Integrin αIIbβ3 as Novel Antiplatelet Agents” (ACS Pharmacology & Translational Science, 2024)
Where two headings read alike, the source gives them in different places.

How the values were obtained:
[1] = target: T1, GST-CIB1 : F-scrambled peptide (Homo sapiens, UniProt Q99828); test: FP scrambled-peptide counter screen, 1536-well format; type: binding; conditions: scrambled-peptide counterscreen; for COUNTERSCREEN Confirm?: YES/NO call; for COUNTERSCREEN Curve Class: qHTS curve class; for IC50: read-out: COUNTERSCREEN IC50
T1 construct: made in house; host or cells: BL-21 plus RIL cells (E. coli)
T1 sequence (Q99828 1-191): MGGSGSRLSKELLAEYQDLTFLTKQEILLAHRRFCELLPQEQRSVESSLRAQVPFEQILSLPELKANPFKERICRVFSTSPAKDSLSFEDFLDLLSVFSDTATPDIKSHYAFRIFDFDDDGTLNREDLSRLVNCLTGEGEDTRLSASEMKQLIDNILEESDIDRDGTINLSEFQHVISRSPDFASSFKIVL

[2] = target: T2, GST-CIB1:F-αIIb interaction (Homo sapiens, UniProt Q99828); test: Gel-based (in-gel) binding assay; conditions: 1 μM GST-CIB1, 400 nM F-αIIb; 60 μM, 1:2, 4-points
T2 construct: made in house; host or cells: BL-21 plus RIL cells (E. coli)
T2 sequence (Q99828 1-191): T1 sequence (Q99828 1-191)

[3] = target: T3, CIB1 and αIIb interaction (CIB1-GST : F-αIIb peptide) (Homo sapiens, UniProt Q99828); test: FP assay, 1536-well qHTS format (primary and confirmatory screen); type: binding; conditions: for CONFIRMATORY SCREEN Confirm?: YES/NO call; for CONFIRMATORY SCREEN Curve Class: qHTS curve class; for CONFIRMATORY SCREEN Curve Class / Curve Class: negative sign = inhibitory curve; for CONFIRMATORY SCREEN Efficacy (%) / Efficacy (%): negative = inhibition
T3 construct: made in house; host or cells: BL-21 plus RIL cells (E. coli)
T3 sequence (Q99828 1-191): T1 sequence (Q99828 1-191)

[4] = target: T4, GST-CIB1 : F-αIIb peptide (Homo sapiens, UniProt Q99828); test: FP assay in the presence of glutathione (GSH), thiol reactivity; type: binding; conditions: for GSH/CIB1 IC50 ratio: ratio of GSH (+) IC50 to GSH (-) IC50
T4 construct: made in house; host or cells: BL-21 plus RIL cells (E. coli)
T4 sequence (Q99828 1-191): T1 sequence (Q99828 1-191)

[5] = target: T1, GST-CIB1 : F-scrambled peptide; test: FP scrambled-peptide counter screen, 384-well format; type: binding; conditions: F-scrambled peptide; for 384-well COUNTERSCREEN Confirm?: *: Curve in opposite direction; for IC50: read-out: 384-well COUNTERSCREEN IC50
[6] = target: T5, CIB1 and αIIb interaction (GST-CIB1 : F-αIIb peptide) (Homo sapiens, UniProt Q99828); test: FP assay, 384-well format (screen); type: binding; design: 384-well SCREEN Efficacy (%): concentration or dose not given beside the values; conditions: for 384-well SCREEN Efficacy (%) / 384-well SCREEN Confirm? / IC50: F-αIIb peptide; for 384-well SCREEN Confirm?: YES/NO; for IC50: read-out: 384-well SCREEN IC50
T5 construct: made in house; host or cells: BL-21 plus RIL cells (E. coli)
T5 sequence (Q99828 1-191): T1 sequence (Q99828 1-191)

[7] = confirmatory screen, read-out: CONFIRMATORY SCREEN IC50
[8] = FP assay in the presence of glutathione (GSH +), read-out: GSH (+) Assay IC50
[9] = FP assay without glutathione (GSH -), read-out: GSH (-) Assay IC50
[10] = qHTS primary screen hits, Table S2
[11] = qHTS primary screen hits, Table S2, several classes where COUNT > 1
[12] = qHTS primary screen hits, Table S2, read-out: IC50
[13] = qHTS FP screen hits, Table S2, one class per curve where COUNT > 1
[14] = qHTS FP screen hits, Table S2, read-out: IC50

Row | SMILES | COUNTERSCREEN Efficacy (%) [1] [%] | COUNTERSCREEN Confirm? [1] | COUNTERSCREEN Curve Class [1] | CONFIRMATORY SCREEN Confirm? ([3]; confirmatory screen) | CONFIRMATORY SCREEN Curve Class ([3]; confirmatory screen) | CONFIRMATORY SCREEN Efficacy (%) ([3]; confirmatory screen) | IC50 [3, 7] [µM] | 384-well COUNTERSCREEN Efficacy (%) [5] [%] | 384-well COUNTERSCREEN Confirm? [5] | IC50 [5] [µM] | 384-well SCREEN Efficacy (%) [6] [%] | 384-well SCREEN Confirm? [6] | IC50 [6] [µM] | Efficacy (%) [3, 10] [%] | IC50 [3, 12] [µM] | IC50 [3, 14] [µM] | Efficacy (%) ([3]; qHTS FP screen hits, Table S2) | Curve Class [3, 13] | also measured
1 | CCN(CC)C(=S)SSC(=S)N(CC)CC [NCGC00016000-13, disulfiram, reference compound] | -13 | YES | 4 | YES | -1.2 | -72 | 14.1 | 34 | YES | > 120 | 95 | YES | 1.6 |  |  |  |  |  | Active in Gel Assay? [2]: YES; IC50 shift in the presence of GSH [4]: 8.5 fold; IC50 [4, 8]: 27 µM; IC50 [4, 9]: 3.2 µM; GSH/CIB1 IC50 ratio [4]: 8.5
2 | CN(C)C(=S)SSC(=S)N(C)C [NCGC00091563-02, thiram, reference compound] |  |  |  |  |  |  |  | 44 | YES | > 120 | 78 | YES | 2.8 |  |  |  |  |  | Active in Gel Assay? [2]: YES; IC50 [4, 8]: 8.3 µM; IC50 [4, 9]: 1 µM; GSH/CIB1 IC50 ratio [4]: 8.3; IC50 shift in the presence of GSH ([4]; with vs without 10 μM reduced GSH): 8.3 fold
3 | S=C(SSC(=S)N1CCCCC1)N1CCCCC1 [NCGC00181776-01] |  |  |  |  |  |  |  |  |  |  |  |  |  |  |  |  |  |  | IC50 ([4]; GSH (+) Assay IC50, FP assay in the presence of glutathione (GSH +)): > 120 µM; IC50 ([4]; GSH (-) Assay IC50, FP assay without glutathione (GSH -)): 4.6 µM; GSH/CIB1 IC50 ratio [4]: 30.8
4 | O=[N+]([O-])c1cnc(Sc2nnc(O)n2-c2ccc3c(c2)OCCO3)s1 [NCGC00263145-01] | 15 | YES | 4 | YES | -1.4 | -64 | 11.2 | 89 | YES | 89.1 | 67 | YES | 2.2 | -40 | 21.5 |  |  |  | Active in Gel Assay? [2]: YES; Curve Class [3, 11]: -2.2
5 | Nc1c(Cc2ccc(S(N)(=O)=O)cc2)c(-c2cccc(-c3ccccc3)c2)nn1-c1nc(C(=O)O)cs1.O=C(O)C(F)(F)F [NCGC00356752-02] | 0 | YES | 4 | YES | -2.2 | -78 | 39.8 | 34 | Inconclusive | 1.6 | 49 | YES | 14.1 |  |  | 28.2 | -54 | -2.2 | Confirm and Selective? ([6]; selective toward αIIb: negative curve class and/or IC50 ratio of >3-fold and/or >2-fold efficacy vs scrambled peptide): Inconclusive
6 | O=C1C=CC(=O)N1c1cccc(Br)c1 [NCGC00373120-01] | 14 | YES | 4 | YES | -1.2 | -38 | 8.9 | 74 | YES | > 120 | 42 | YES | 10 | -54 | 7.1 |  |  |  | Curve Class [3, 10]: -1.2
7 | COC(=O)C12C(=O)C(C)(O)C(=O)C1(C)C(C)=CC1C34CCC(OC3=O)C(C)(CO)C4CCC12C (stereo not shown) [NCGC00380147-01] | -27 | YES | 4 | YES | -2.2 | -42 | 17.8 | -50 |  | 26.4 | 80 | YES | 32.8 |  |  | 28.2 | -32 | -2.2 | 
8 | N#Cc1ccc(N2N=C3c4ccc(C(=O)O)cc4CC[C@@H]3[C@@H]2C2CCCC2)cc1Cl [NCGC00485023-01] | 165 | YES |  | YES | -2.4 | -30 |  | 40 |  |  | -15 |  |  |  |  |  | -32 | -1.2 | 

Further lines, with some results ahead:

Row | COUNTERSCREEN Efficacy (%) [1] [%] | COUNTERSCREEN Confirm? [1] | COUNTERSCREEN Curve Class [1] | CONFIRMATORY SCREEN Confirm? ([3]; confirmatory screen) | CONFIRMATORY SCREEN Curve Class ([3]; confirmatory screen) | CONFIRMATORY SCREEN Efficacy (%) ([3]; confirmatory screen) | IC50 [3, 7] [µM] | 384-well COUNTERSCREEN Efficacy (%) [5] [%] | 384-well COUNTERSCREEN Confirm? [5] | IC50 [5] [µM] | 384-well SCREEN Efficacy (%) [6] [%] | 384-well SCREEN Confirm? [6] | IC50 [6] [µM] | Efficacy (%) [3, 10] [%] | IC50 [3, 12] [µM] | IC50 [3, 14] [µM] | SMILES | Efficacy (%) ([3]; qHTS FP screen hits, Table S2) | Curve Class [3, 13] | also measured
9 | -27 | YES | 4 | YES | -2.2 | -63 | 44.7 | 0 | YES | > 120 | 70 | YES | 63.4 |  |  | 39.8 | O=C(O)c1cccc(CN2C(=O)/C(=C(\c3ccccc3)c3ccc(Cl)cc3)c3ccccc32)c1 [NCGC00378823-01] | -34 | -1.2 | 
10 | 21 | YES | 4 | YES | -1.2 | -63 | 0.4 | 30 | YES* | > 120 | 70 | YES | 0.32 |  |  | 2.2 | CC[S+]([O-])c1nc(-c2cccc(OCc3ccccc3)c2)cc(C(F)(F)F)n1 (stereo not shown) [NCGC00379201-03] | -39 | -1.2 | 
11 | 32 | YES | 4 | YES | -2.4 | -66 | 20 | 242 |  | 50.1 | 84 |  | > 120 | -23 | 28.2 |  | Cc1ccc(-c2cc(-c3nn(-c4nc(C(=O)O)cs4)c(CC4CC4)c3Cc3ccc(S(N)(=O)=O)c(F)c3)ccc2F)s1.Cl [NCGC00388587-02] |  |  | Curve Class [3, 11]: -1.4
12 | 154 | YES |  | YES | -3 | -77 | 28.2 | 158 | YES | 39.8 | 60 | YES | 4.5 | -40 | 22.4 |  | Cc1ccc(-c2cc(-c3nn(-c4nc(C(=O)O)cs4)c(CC4CC4)c3Cc3ccc(S(N)(=O)=O)c(F)c3)ccc2F)o1 [NCGC00389082-01] |  |  | IC50 [1]: 79.4 µM; Curve Class [3, 11]: -2.4
13 | 101 | YES |  | YES | -2.2 | -52 | 39.8 | 25 | YES* | > 120 | 35 | YES | 30.1 |  |  | 56.2 | COc1ccc2c(c1)C=C1Cn3c-2c(C2CCCCC2)c2ccc(cc23)C(=O)NS(=O)(=O)N(C)CCOCCN(C)C1=O [NCGC00482982-02] | -35 | -2.2 | IC50 [1]: 70.8 µM
